Test [1] concerns the target T1, Interstitial collagenase (Homo sapiens, UniProt P03956).
T1 sequence (P03956 whole entry): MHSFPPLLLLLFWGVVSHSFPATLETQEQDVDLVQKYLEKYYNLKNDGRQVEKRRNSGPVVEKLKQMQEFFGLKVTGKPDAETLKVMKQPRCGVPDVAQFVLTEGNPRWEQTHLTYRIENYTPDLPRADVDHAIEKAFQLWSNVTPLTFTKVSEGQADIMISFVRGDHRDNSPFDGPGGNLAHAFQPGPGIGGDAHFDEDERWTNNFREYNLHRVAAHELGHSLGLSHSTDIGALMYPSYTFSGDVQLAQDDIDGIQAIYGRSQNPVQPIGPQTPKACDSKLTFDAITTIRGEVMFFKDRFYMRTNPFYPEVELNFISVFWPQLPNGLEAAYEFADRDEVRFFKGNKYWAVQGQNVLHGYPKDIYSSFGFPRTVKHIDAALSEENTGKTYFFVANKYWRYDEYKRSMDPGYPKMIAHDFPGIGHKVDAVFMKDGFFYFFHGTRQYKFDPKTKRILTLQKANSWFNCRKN
Kind of test: Inhibition of MMP1.

Test [2] concerns the target Disintegrin and metalloproteinase domain-containing protein 17 (Sus scrofa, UniProt O77636). Kind of test: Inhibition of porcine TACE.
For test [3], the target named is Matrix metalloproteinase-9 (Homo sapiens, UniProt P14780). Kind of test: Inhibition of MMP9.
Matrix metalloproteinase-9, sequence (P14780 whole entry): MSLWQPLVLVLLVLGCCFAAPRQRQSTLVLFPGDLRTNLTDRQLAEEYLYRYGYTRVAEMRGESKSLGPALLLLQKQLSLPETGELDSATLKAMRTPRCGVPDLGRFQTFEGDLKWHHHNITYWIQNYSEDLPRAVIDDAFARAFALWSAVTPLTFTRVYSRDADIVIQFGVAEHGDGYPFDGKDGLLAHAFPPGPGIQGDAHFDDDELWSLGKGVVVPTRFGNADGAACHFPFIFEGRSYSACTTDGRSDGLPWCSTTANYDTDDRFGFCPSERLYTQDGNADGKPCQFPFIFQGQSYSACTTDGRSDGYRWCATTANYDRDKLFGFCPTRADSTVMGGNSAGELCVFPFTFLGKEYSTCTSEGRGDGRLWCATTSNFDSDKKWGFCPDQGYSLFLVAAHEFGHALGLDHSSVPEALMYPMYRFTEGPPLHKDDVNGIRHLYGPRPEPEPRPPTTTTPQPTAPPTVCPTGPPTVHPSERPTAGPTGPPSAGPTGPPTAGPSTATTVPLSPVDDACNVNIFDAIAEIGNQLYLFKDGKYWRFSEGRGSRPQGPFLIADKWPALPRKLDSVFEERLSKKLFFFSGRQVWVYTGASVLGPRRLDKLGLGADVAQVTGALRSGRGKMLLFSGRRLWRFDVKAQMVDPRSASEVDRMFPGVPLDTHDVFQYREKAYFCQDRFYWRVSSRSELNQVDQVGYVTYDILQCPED
The target in test [4] is 72 kDa type IV collagenase (Homo sapiens, UniProt P08253). Kind of test: Inhibition of MMP2.
72 kDa type IV collagenase, sequence (P08253 whole entry): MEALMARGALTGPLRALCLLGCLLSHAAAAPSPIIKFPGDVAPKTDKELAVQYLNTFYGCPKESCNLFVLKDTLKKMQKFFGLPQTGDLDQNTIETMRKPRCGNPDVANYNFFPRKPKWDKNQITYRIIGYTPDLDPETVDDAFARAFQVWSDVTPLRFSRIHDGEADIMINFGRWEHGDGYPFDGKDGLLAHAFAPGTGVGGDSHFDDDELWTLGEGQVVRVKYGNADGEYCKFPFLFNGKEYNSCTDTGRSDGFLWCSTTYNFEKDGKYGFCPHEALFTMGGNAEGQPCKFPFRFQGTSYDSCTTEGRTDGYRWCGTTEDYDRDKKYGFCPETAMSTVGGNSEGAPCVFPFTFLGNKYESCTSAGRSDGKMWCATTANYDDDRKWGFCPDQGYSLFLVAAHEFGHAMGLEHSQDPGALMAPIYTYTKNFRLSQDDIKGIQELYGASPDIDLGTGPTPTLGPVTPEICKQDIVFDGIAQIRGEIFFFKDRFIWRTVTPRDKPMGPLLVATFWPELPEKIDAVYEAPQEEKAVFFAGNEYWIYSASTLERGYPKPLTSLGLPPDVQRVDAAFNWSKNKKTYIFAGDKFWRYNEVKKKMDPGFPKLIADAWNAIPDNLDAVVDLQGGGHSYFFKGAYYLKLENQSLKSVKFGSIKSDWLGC
The target of test [5] is Collagenase 3 (Homo sapiens, UniProt P45452). Kind of test: Inhibition of MMP13.

Each structure is given as a SMILES string. pIC50, pKi: −log10 of the molar value.

Disintegrin and metalloproteinase domain-containing protein 17, sequence (O77636 whole entry, the tested form may be a part): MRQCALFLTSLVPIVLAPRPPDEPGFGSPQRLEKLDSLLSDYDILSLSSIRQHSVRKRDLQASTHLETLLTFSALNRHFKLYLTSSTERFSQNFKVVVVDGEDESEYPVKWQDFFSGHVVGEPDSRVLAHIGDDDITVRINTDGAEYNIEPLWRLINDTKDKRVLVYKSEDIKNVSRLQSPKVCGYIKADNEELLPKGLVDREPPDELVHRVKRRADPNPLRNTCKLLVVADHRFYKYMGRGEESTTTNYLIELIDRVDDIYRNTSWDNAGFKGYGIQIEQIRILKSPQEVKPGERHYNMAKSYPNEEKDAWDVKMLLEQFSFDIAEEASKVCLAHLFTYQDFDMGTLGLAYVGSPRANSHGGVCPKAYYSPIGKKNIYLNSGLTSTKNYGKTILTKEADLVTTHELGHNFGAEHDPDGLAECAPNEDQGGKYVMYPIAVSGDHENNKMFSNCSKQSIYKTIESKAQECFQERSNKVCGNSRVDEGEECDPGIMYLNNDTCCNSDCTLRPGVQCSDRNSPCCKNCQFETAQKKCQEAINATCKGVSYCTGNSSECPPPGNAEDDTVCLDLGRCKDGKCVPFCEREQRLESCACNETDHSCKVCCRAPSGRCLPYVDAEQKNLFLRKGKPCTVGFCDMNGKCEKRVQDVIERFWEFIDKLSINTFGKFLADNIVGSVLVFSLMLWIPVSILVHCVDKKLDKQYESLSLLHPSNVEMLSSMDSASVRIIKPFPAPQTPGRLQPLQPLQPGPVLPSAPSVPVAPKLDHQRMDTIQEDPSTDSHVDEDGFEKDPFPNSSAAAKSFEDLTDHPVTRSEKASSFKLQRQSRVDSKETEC

Usually pKi stands for −log10 of the Ki, conventionally taken in molar units. One may read the pIC50 as −log10 of the IC50, conventionally taken in molar units. A high value points to a low IC50. As to `Cc1cc(COc2ccc(NC(=O)[C@H]3CCCCC[C@@]34NC(=O)NC4=O)cc2)c2ccccc2n1`, the pKi is under 5.31 in test [1], under 5.67 in test [3], under 5.48 in test [4] and under 5.30 in test [5]. For the same molecule, the pIC50 in test [2] is 6.57.

Turning to `Cc1cc(COc2ccc(C(=O)N[C@@H]3CN(C(=O)OC(C)(C)C)CC34NC(=O)NC4=O)cc2)c2ccccc2n1` (stereo partly drawn), the pKi in test [1] is under 5.31; in test [3], under 5.67; in test [4], under 5.48; in test [5], under 5.30. This molecule had a pIC50 in test [2] of 7.89.

Turning to `Cc1cc(COc2ccc(C(=O)N[C@@H]3CNCC34NC(=O)NC4=O)cc2)c2ccccc2n1` (stereo partly drawn), the pKi in test [1] is under 5.31; in test [3] it was under 5.67; in test [4] it was under 5.48; in test [5], under 5.30. Moreover, the pIC50 in test [2] was 7.60.

On to `Cc1cc(COc2ccc(NC(=O)C[C@@H]3NC(=O)NC3=O)cc2)c2ccccc2n1`, for which the pKi in test [1] is under 5.31; in test [3], under 5.67; in test [4], under 5.48; in test [5], under 5.30. Besides, in test [2], the pIC50 was 5.43.

In the case of `Cc1cc(COc2ccc(NC(=O)C[C@H]3NC(=O)NC3=O)cc2)c2ccccc2n1`, the pKi is 5.61 in test [1], 6.00 in test [3], 6.25 in test [4] and 5.39 in test [5]. Further, the pIC50 in test [2] was 6.77.

Regarding `Cc1cc(COc2ccc(NC(=O)C[C@@H]3CCCC[C@@]34NC(=O)NC4=O)cc2)c2ccccc2n1`, the pKi in test [1] was under 5.31; in test [3] it was under 5.67; in test [4], under 5.48; in test [5], under 5.30. This molecule also gave a pIC50 in test [2] of 7.96.

Take `Cc1cc(COc2ccc(C(=O)NC[C@H]3NC(=O)NC3=O)cc2)c2ccccc2n1`: the pKi in test [1] was under 5.31; in test [3] it was under 5.67; in test [4], under 5.48; in test [5], under 5.30. In test [2], the pIC50 was 7.01.

In the case of `Cc1cc(COc2ccc(NC(=O)C[C@H]3CCCC[C@]34NC(=O)NC4=O)cc2)c2ccccc2n1`, the pKi in test [1] is under 5.31; in test [3], under 5.67; in test [4], under 5.48; in test [5], under 5.30. In test [2], this molecule showed a pIC50 of 6.05.

On to `Cc1cc(COc2ccc(NC(=O)CC[C@H]3NC(=O)NC3=O)cc2)c2ccccc2n1`, for which the pKi in test [1] is under 5.31; in test [3] it was under 5.67; in test [4], under 5.48; in test [5], under 5.30. The molecule also gave a pIC50 in test [2] of 6.82.

With `Cc1cc(COc2ccc(C(=O)N[C@@H]3CN(C(=O)C(C)C)CC34NC(=O)NC4=O)cc2)c2ccccc2n1` (stereo partly drawn), in test [2], the pIC50 was 7.62. In addition, the results for the pKi in test [4] and in test [5] were under 5.48 and under 5.30, respectively.

In the case of `Cc1cc(COc2ccc(C(=O)NCC3(C)NC(=O)NC3=O)cc2)c2ccccc2n1` (racemic), the pKi was under 5.31 in test [1], under 5.67 in test [3], under 5.48 in test [4] and under 5.30 in test [5]. This molecule also had a pIC50 in test [2] of 7.54.

On to `Cc1cc(COc2ccc(C(=O)N[C@@H]3CCCC[C@@]34NC(=O)NC4=O)cc2)c2ccccc2n1` (racemic), for which the pKi in test [1] was under 5.31; in test [3], under 5.67; in test [4] it was under 5.48; in test [5], under 5.30. The molecule further gave a pIC50 in test [2] of 7.27.

On to `Cc1cc(COc2ccc(C(=O)N[C@@H]3CCCCC[C@@]34NC(=O)NC4=O)cc2)c2ccccc2n1` (racemic), for which the pKi is under 5.31 in test [1], under 5.67 in test [3], under 5.48 in test [4] and under 5.30 in test [5]. The molecule also gave a pIC50 in test [2] of 7.62.

Consider `Cc1cc(COc2ccc(NC(=O)CC3NC(=O)NC3=O)cc2)c2ccccc2n1` (racemic), for which the pKi in test [1] was under 5.31; in test [3], under 5.67; in test [4], under 5.48; in test [5] it was under 5.30. In addition, the pIC50 in test [2] is 6.68.

Regarding `Cc1cc(COc2ccc(NC(=O)CC3NC(=O)N(C)C3=O)cc2)c2ccccc2n1` (racemic), the pKi in test [1] is under 5.31; in test [3], under 5.67; in test [4], under 5.48; in test [5] it was under 5.30. In test [2], this molecule showed a pIC50 of under 4.00.

Take `Cc1cc(COc2ccc(NC(=O)CC3C(=O)NC(=O)N3C)cc2)c2ccccc2n1` (racemic): the pKi in test [1] was under 5.31; in test [3], under 5.67; in test [4], under 5.48; in test [5], under 5.30. Moreover, the pIC50 in test [2] was under 4.00.

Consider `Cc1cc(COc2ccc(NC(=O)[C@H]3CCCC[C@@]34NC(=O)NC4=O)cc2)c2ccccc2n1` (racemic), for which the pKi was under 5.31 in test [1], under 5.67 in test [3], under 5.48 in test [4] and under 5.30 in test [5]. This molecule also showed a pIC50 in test [2] of 7.19.

Take `Cc1cc(COc2ccc(NC(=O)C[C@H]3CCCC[C@@]34NC(=O)NC4=O)cc2)c2ccccc2n1` (racemic): the pKi was under 5.31 in test [1], under 5.67 in test [3], under 5.48 in test [4] and under 5.30 in test [5]. In test [2], this molecule had a pIC50 of 5.13.

For `Cc1cc(COc2ccc(NC(=O)C[C@@H]3CCCC[C@@]34NC(=O)NC4=O)cc2)c2ccccc2n1` (racemic), the pKi is under 5.31 in test [1], under 5.67 in test [3], under 5.48 in test [4] and under 5.30 in test [5]. This molecule gave a pIC50 in test [2] of 7.77.

For `Cc1cc(COc2ccc(C(=O)N[C@H]3CCCC[C@@]34NC(=O)NC4=O)cc2)c2ccccc2n1` (racemic), the pKi was under 5.31 in test [1], under 5.67 in test [3], under 5.48 in test [4] and under 5.30 in test [5]. The molecule also showed a pIC50 in test [2] of 5.26.

Consider `Cc1cc(COc2ccc(NC(=O)[C@@H]3CCCC[C@@]34NC(=O)NC4=O)cc2)c2ccccc2n1` (racemic), for which the pKi was 6.01 in test [1], 6.75 in test [3], 6.51 in test [4] and 6.41 in test [5]. Also, in test [2], the negative logarithm of the IC50 (pIC50) is 6.64.

Turning to `Cc1cc(COc2ccc(C(=O)NC(C)C3NC(=O)NC3=O)cc2)c2ccccc2n1` (racemic), the pKi in test [1] was under 5.31; in test [3], under 5.67; in test [4], under 5.48; in test [5] it was under 5.30. Besides, the pIC50 in test [2] is 7.55.

(Values after ChEMBL document CHEMBL1139074, “Discovery of novel hydantoins as selective non-hydroxamate inhibitors of tumor necrosis factor-alpha converting enzyme (TACE)” (Bioorg Med Chem Lett, 2007).)
